Data reported in patent US20250255876A1, “COMPOSITIONS AND METHODS FOR CANCER TREATMENT” (ARIEL SCIENTIFIC INNOVATIONS LTD., priority 2021, published 2025).

Key:
Format in all cases: cell-based
U2OS cells = test: Colony survival assay, U2OS cells; conditions: varying cisplatin, 48 hours
Procedure: (§1) H1975 cells were plated in 24-well plates at 50,000 cells/well (for 50 µM inhibitor treatment) or 20,000 cells/well (for […] inhibitor treatment). U2OS and A549 cells were plated in 24-well plates at 5000 cells/well. The next day, cells were treated with varying concentrations of cisplatin, either with or without added inhibitor compound. After 48 hours of cisplatin+compound treatment, the cells were washed 3 times with PBS×1 and fresh media applied. After 4 days of recovery, the cells were stained with methylene blue and imaged using a Nikon SMZ25 stereomicroscope. The images were analyzed using the ImageJ (National Institutes of Health) area measurement tool to quantify total colony size in each well.

A549 cells = test: Colony survival assay, A549 cells; conditions: A549, 5 μM cisplatin
Procedure: as §1
(§2) Cells were plated in 24-well plates at 50,000 cells/well (H1975 line) or 10,000 cells/well (A549 line). The next day, cells were treated with varying concentrations of cisplatin ([…]), with or without 50 μM compound. For the untreated control wells containing only cisplatin, DMSO was applied in place of the compound. After 48 hours of cisplatin+compound treatment, the cells were washed 3 times with PBS and fresh media was applied. After 4 days of recovery, the cells were stained with methylene blue and imaged using a Nikon SMZ25 stereomicroscope. The images were analyzed using the ImageJ (National Institutes of Health) area measurement tool to quantify total colony size in each well.
(§3) In order to assess the ability of the selected compounds to sensitize cells during cisplatin treatment, the inventors established a colony survival assay comparing the viability of cells treated with cisplatin alone or with combined treatment of cisplatin and 50 μM compound. For the compound screen, we used two lung cancer cell lines: human non-small lung carcinoma H1975 cells, and epithelial lung adenocarcinoma A549 cells. Out of ten compounds tested, compounds c #2 and c #3 were identified with the most significant sensitization effect and were chosen for future characterization. […] Survival rate was reduced from 90% in 5 μM cisplatin treatment to 50% survival in the combined treatment (FIGS. 11A-B). H1975 cells presented similar behavior following doxorubicin treatment (FIG. 11C). IC50 was calculated using linear regression, presenting a clear reduction of cisplatin's IC50 in all treatments.

H1975 cells = test: Colony survival assay, H1975 cells; conditions: H1975, 5 μM cisplatin
Procedure: as §1, §2, §3

Structure (SMILES) | cell survival with cisplatin plus inhibitor (U2OS cells) | survival rate, cisplatin alone (A549 cells) | survival rate, cisplatin alone (H1975 cells)
CCCC(=O)Nc1cccc(C(=O)Nc2nnc(COC)s2)c1 [Compound 9] | no activity | – | –
N.N.[Cl][Pt][Cl] [cisplatin, cis-diamminedichloroplatinum(II), reference compound] | – | 90% | 90%
